Laboratory results reported in patent US10350302B2, “Thymidine kinase diagnostic assay for gene therapy applications” (GenVivo, Inc., priority 2013, dated 2019).

Columns and labels:
[1] = system: HSV-TK enzyme; conditions: cited from earlier work
[2] = system: mammalian TK enzymes; conditions: cited from earlier work
[3] = [18F]FHBG whole body biodistribution by PET (FIG. 2); type: in vivo, human
Excerpt: FIG. 2 is whole body coronal images of [^18F]FHBG biodistribution in a healthy human subject at four distinct time periods after 4.53 mCi i.v. injection of the [^18F]FHBG.
In some embodiments, the clearance pattern in a subject determines the length of time delay for measuring background and determining, for example, [^18F]FHBG imaging activity. […] Accordingly, depending upon the organ and subject individual, some time may be required for background levels to decrease in order to measure HSV-TK gene expression. […] In these organ systems, a sufficient threshold for gene therapy suitability may be, for example, at least above 1.0 SUV, at least above 1.5 SUV, at least above 2.0 SUV, at least above 2.5 SUV, at least above 3.0 SUV, at least above 3.5 SUV or at least above 4.0 SUV.
In contrast, some delay may be needed in order to image signals above background levels in, for example, the liver and kidneys. See Yaghoubi et al. Nat. Protocols at vol. 1, p. 3073. Because of the background signals in these organ systems, a sufficient threshold for determination of suitability for gene therapy treatment may be, for example, at least 10% above background, at least 15% above background, at least 20% above background, at least 25% above background, at least 30% above background, at least 35% above background, at least 40% above background, at least 45% above background, at least 50% above background, at least 55% above background, at least 60% above background, at least 65% above background, at least 70% above background, at least 75% above background, at least 80% above background, at least 85% above background, at least 90% above background, at least 95% above background or at least 100% or more above background when measured after a predetermined amount of time. […] Accordingly, [^18F]FHBG signal measurements in the liver should not be taken until after [^18F]FHBG signal levels have decreased to background, approximately 1 to 1½ hours, depending upon clearance rate in each individual subject.

[4] = system: cells containing HSV-TK-m2; conditions: published observations; cited from earlier work
[5] = system: cancer cells; test: GCV mediated cancer cell kill assay after retroviral transduction; type: cell-based; conditions: following retroviral transduction delivery
Excerpt: […]

[6] = healthy human subject, 45.3 minutes to 80.3 minutes
[7] = healthy human subject, 83.3 minutes to 155.6 minutes

Molecule: Nc1nc2c(ncn2CCC(CO)C[18F])c(=O)[nH]1 (stereo not drawn) [[^18F]FHBG, 9-[4-[^18F]Fluoro-3-(hydroxymethyl)butyl]guanine]
- affinity as substrate for HSV-TK enzyme [1]: high affinity substrate
- affinity for mammalian TK enzymes [2]: relative low affinity
- background [18F]FHBG signal in the heart and lungs ([3]; healthy human subject, 4.53 mCi i.v., after administration): virtually no background
- [18F]FHBG levels in the liver, kidneys and bladder ([3]; healthy human subject, 4.53 mCi i.v., between 7.6 and 42.6 minutes after administration): high
- [18F]FHBG levels in the liver and kidneys [3, 6]: decreased significantly
- [18F]FHBG signal in the bladder [3, 6]: persistent high signal
- [18F]FHBG levels in the liver and kidneys [3, 7]: decreased even further
- [18F]FHBG signal in the bladder [3, 7]: maintenance of high signal levels
- [18F]FHBG background in most tissues outside the lower abdomen ([3]; humans): rapidly decreases

Molecule: Nc1nc(O)c2ncn(COC(CO)CO)c2n1 [ganciclovir]
- duration of ganciclovir sufficient to kill the majority of cells containing HSV-TK-m2 [4]: 5 days

B1: HSV-TK gene A168H and mutated at amino acids 159-161 from LIF to IFL: HSV-TK gene A168H also mutated at amino acids 159-161 from LIF to IFL (nucleic acid)
DNA: GTCAGCGGCCGCACCGGTACGCGTCCACCATGGCCAGCTACCCCGGCCACCAGCACGCCAGCGCCTTCGACCAGGCCGCCCGCAGCCGCGGCCACAGCAACGGCAGCACCGCACTGCGGCCACGGCGCCAGCAGGAGGCCACCGAGGTGCGCCCCGAGCAGAAGATGCCCACCCTGCTGCGCGTGTACATCGACGGACCACACGGCATGGGCAAGACCACCACCACCCAGCTGCTGGTGGCCCTGGGCAGCCGCGACGACATCGTGTACGTGCCCGAGCCCATGACCTACTGGCGCGTGCTGGGCGCCAGCGAGACCATCGCCAACATCTACACCACCCAGCACCGCCTGGACCAAGGCGAGATCAGCGCCGGCGACGCCGCCGTGGTGATGACCAGCGCCCAGATTACAATGGGCATGCCCTACGCCGTGACCGACGCCGTGCTGGCACCACACATCGGCGGCGAGGCCGGCAGCAGCCACGCACCACCACCAGCACTGACCATCTTCCTGGACCGGCACCCAATCGCACACCTGCTGTGCTACCCGGCAGCACGCTACCTGATGGGCTCCATGACACCACAAGCCGTGCTGGCCTTCGTGGCCCTGATCCCACCAACACTGCCCGGCACCAACATCGTGCTGGGCGCCCTGCCCGAGGACCGCCACATCGACCGCCTGGCCAAGCGCCAGCGCCCCGGCGAGCGCCTGGACCTGGCCATGCTGGCCGCCATCCGCCGCGTGTACGGCCTGCTGGCCAACACCGTGCGCTACCTGCAGTGCGGCGGCAGCTGGCGCGAGGACTGGGGCCAGCTGAGCGGCACCGCCGTGCCACCACAGGGCGCCGAGCCACAGAGCAACGCCGGACCACGACCACACATCGGCGACACCCTGTTCACCCTGTTCCGGGCACCAGAGCTGCTGGCACCAAACGGCGACCTGTACAACGTGTTCGCCTGGGCCCTGGACGTGCTGGCCAAGCGCCTGCGCTCCATGCACGTGTTCATCCTGGACTACGACCAGTCACCGGCCGGCTGCCGCGACGCCCTGCTGCAGCTGACCAGCGGCATGGTGCAGACCCACGTGACAACACCCGGCAGCATCCCAACAATCTGCGACCTGGCCCGCACCTTCGCCCGCGAGATGGGCGAGGCCAACTAATAGGGATCCCTCGAGAAGCTTGTCA
- GCV mediated cancer kill activity ([5]; ganciclovir (GCV) pro-drug): exhibited GCV mediated cancer cell kill activity

B2: SEQ ID NO: 18: optimized HSV-TK polynucleotide: A168H, nuclear export sequence, double mutated NLS, codon optimized, splice corrected (nucleic acid)
DNA: GTCAGCGGCCGCACCGGTACGCGTCCACCATGGCCCTGCAGAAAAAGCTGGAAGAGCTGGAACTGGATGGCAGCTACCCCGGCCACCAGCACGCCAGCGCCTTCGACCAGGCCGCCCGCAGCCGCGGCCACAGCAACGGCAGCACCGCACTGCGGCCAGGATCTCAGCAGGAGGCCACCGAGGTGCGCCCCGAGCAGAAGATGCCCACCCTGCTGCGCGTGTACATCGACGGACCACACGGCATGGGCAAGACCACCACCACCCAGCTGCTGGTGGCCCTGGGCAGCCGCGACGACATCGTGTACGTGCCCGAGCCCATGACCTACTGGCGCGTGCTGGGCGCCAGCGAGACCATCGCCAACATCTACACCACCCAGCACCGCCTGGACCAAGGCGAGATCAGCGCCGGCGACGCCGCCGTGGTGATGACCAGCGCCCAGATTACAATGGGCATGCCCTACGCCGTGACCGACGCCGTGCTGGCACCACACATCGGCGGCGAGGCCGGCAGCAGCCACGCACCACCACCAGCACTGACCCTGATCTTCGACCGGCACCCAATCGCACACCTGCTGTGCTACCCGGCAGCACGCTACCTGATGGGCTCCATGACACCACAAGCCGTGCTGGCCTTCGTGGCCCTGATCCCACCAACACTGCCCGGCACCAACATCGTGCTGGGCGCCCTGCCCGAGGACCGCCACATCGACCGCCTGGCCAAGCGCCAGCGCCCCGGCGAGCGCCTGGACCTGGCCATGCTGGCCGCCATCCGCCGCGTGTACGGCCTGCTGGCCAACACCGTGCGCTACCTGCAGTGCGGCGGCAGCTGGCGCGAGGACTGGGGCCAGCTGAGCGGCACCGCCGTGCCACCACAGGGCGCCGAGCCACAGAGCAACGCCGGACCACGACCACACATCGGCGACACCCTGTTCACCCTGTTCCGGGCACCAGAGCTGCTGGCACCAAACGGCGACCTGTACAACGTGTTCGCCTGGGCCCTGGACGTGCTGGCCAAGCGCCTGCGCTCCATGCACGTGTTCATCCTGGACTACGACCAGTCACCGGCCGGCTGCCGCGACGCCCTGCTGCAGCTGACCAGCGGCATGGTGCAGACCCACGTGACAACACCCGGCAGCATCCCAACAATCTGCGACCTGGCCCGCACCTTCGCCCGCGAGATGGGCGAGGCCAACTAATAGGGATCCCTCGAGAAGCTTGTCA
- pro-drug GCV enzyme activity and selectivity for ability to kill cancer cells [5]: exhibited pro-drug GCV enzyme activity and selectivity
